Source: patent publication US10717730B1, “Dihydroisoquinoline compound” (SUZHOU ARK BIOPHARMACEUTICAL CO., LTD., priority 2017, dated 2020)

Test system: HBsAg
Experiment: HBsAg assay (secreted HBsAg by CLIA in HepG2.2.15 cells)
Assay type: cell-based, hepatitis B virus (HBV)
Settings: Hepatitis B virus, HepG2.2.15, 96 h
Protocol: HepG2.2.15 cells (Sells et al, Proc Natl Acad Sci USA. 1987 February; 84(4):1005-9), a constitutively HBV-expressing cell line, were cultured in DMEM medium supplemented with 10% FBS and 400 μg/mL G418, and maintained in 5% CO2 at 37° C.
HepG2.2.15 cells were seeded into 96-well plates at 3×10^4 cells/well. The next day, the cells were treated with a five-fold serial dilution series of the compound in DMSO. The final DMSO concentration in all wells was 0.5% and 0.5% DMSO was used as no drug control. After four days of incubation with compounds, the supernatants were harvested and measured for HBsAg concentration
The HBsAg chemiluminescence immunoassay (CLIA) kit was used to measure the levels of secreted HBsAg. Specifically, 50 μL of culture supernatant was transferred to the CLIA assay plate and 50 μL of enzyme conjugate reagent was added into each well. The plates were sealed and incubated for 1 hour at room temperature. The supernatant-enzyme-mixture was discarded and wells were washed for 6 times. The residual liquid was removed by plating on tissue paper. 25 μL of substrate A and B were added into each well. Luminance was measured using a spectrometer (Tecan Infinite® F200) after 10 minutes incubation. IC50 value was extrapolated based the dose-response curves generated from the data.

Structure (SMILES) | IC50 [nM]
COc1cc2c(cc1-c1ccc(C(F)(F)F)nc1)CC(C(C)(C)C)n1cc(C(=O)O)c(=O)cc1-2 (stereo not drawn) [Example 41, 6-(tert-butyl)-10-methoxy-2-oxo-9-(6-trifluoromethylpyridin-3-yl)-6,7-dihydro-2H-pyrido[2,1-a]isoquinoline-3-carboxylic acid] | 2
COCCOc1ccc(-c2cc3c(cc2OC)-c2cc(=O)c(C(=O)O)cn2C(C(C)(C)C)C3)cn1 (stereo not drawn) [Example 42, 6-(tert-butyl)-10-methoxy-9-(6-(2-methoxyethoxy)pyridin-3-yl)-2-oxo-6,7-dihydro-2H-pyrido[2,1-a]isoquinoline-3-carboxylic acid] | 2
COc1cc2c(cc1-c1ccc(N(C)C)nc1)CC(C(C)(C)C)n1cc(C(=O)O)c(=O)cc1-2 (stereo not drawn) [Example 43, 6-(tert-butyl)-9-(6-(dimethylamino)pyridin-3-yl)-10-methoxy-2-oxo-6,7-dihydro-2H-pyrido[2,1-a]isoquinoline-3-carboxylic acid] | 1
COc1cc2c(cc1-c1ccc(N3CCCC3)nc1)CC(C(C)(C)C)n1cc(C(=O)O)c(=O)cc1-2 (stereo not drawn) [Example 44, 6-(tert-butyl)-10-methoxy-2-oxo-9-(6-(pyrrolidin-1-yl)pyridin-3-yl)-6,7-dihydro-2H-pyrido[2,1-a]isoquinoline-3-carboxylic acid] | 10
COc1cc2c(cc1-c1ccc(N3CCNCC3)nc1)CC(C(C)(C)C)n1cc(C(=O)O)c(=O)cc1-2 (stereo not drawn) [Example 45, 6-(tert-butyl)-10-methoxy-2-oxo-9-(6-(piperazin-1-yl)pyridin-3-yl)-6,7-dihydro-2H-pyrido[2,1-a]isoquinoline-3-carboxylic acid] | 14
COc1cc2c(cc1-c1ccc(N3CCN(C(C)=O)CC3)nc1)CC(C(C)(C)C)n1cc(C(=O)O)c(=O)cc1-2 (stereo not drawn) [Example 46, 9-(6-(4-acetylpiperazin-1-yl)pyridin-3-yl)-6-(tert-butyl)-10-methoxy-2-oxo-6,7-dihydro-2H-pyrido[2,1-a]isoquinoline-3-carboxylic acid] | 3
COc1cc2c(cc1-c1ccc(N3CCN(C)CC3)nc1)CC(C(C)(C)C)n1cc(C(=O)O)c(=O)cc1-2 (stereo not drawn) [Example 47, 6-(tert-butyl)-10-methoxy-9-(6-(4-methylpiperazin-1-yl)pyridin-3-yl)-2-oxo-6,7-dihydro-2H-pyrido[2,1-a]isoquinoline-3-carboxylic acid] | 2
COc1cc2c(cc1-c1cnc(F)cc1C)CC(C(C)(C)C)n1cc(C(=O)O)c(=O)cc1-2 (stereo not drawn) [Example 48, 6-(tert-butyl)-9-(6-fluoro-4-methylpyridin-3-yl)-10-methoxy-2-oxo-6,7-dihydro-2H-pyrido[2,1-a]isoquinoline-3-carboxylic acid] | 68
COc1cc2c(cc1-c1ccc(F)nc1)CC(C(C)(C)C)n1cc(C(=O)O)c(=O)cc1-2 (stereo not drawn) [Example 49, 6-(tert-butyl)-9-(6-fluoropyridin-3-yl)-10-methoxy-2-oxo-6,7-dihydro-2H-pyrido[2,1-a]isoquinoline-3-carboxylic acid] | 14
COc1cc2c(cc1-c1ccc(NCC3CC3)nc1)CC(C(C)(C)C)n1cc(C(=O)O)c(=O)cc1-2 (stereo not drawn) [Example 52, 6-(tert-butyl)-9-(6-(cyclopropylmethylamino)pyridin-3-yl)-10-methoxy-2-oxo-6,7-dihydro-2H-pyrido[2,1-a]isoquinoline-3-carboxylic acid] | 12
COc1cc2c(cc1-c1cnc(N3CCC3)cc1C)CC(C(C)(C)C)n1cc(C(=O)O)c(=O)cc1-2 (stereo not drawn) [Example 53, 9-(6-(azetidin-1-yl)-4-methylpyridin-3-yl)-6-(tert-butyl)-10-methoxy-2-oxo-6,7-dihydro-2H-pyrido[2,1-a]isoquinoline-3-carboxylic acid] | 1400
COc1cc2c(cc1-c1ccc(N)nc1)CC(C(C)(C)C)n1cc(C(=O)O)c(=O)cc1-2 (stereo not drawn) [Example 54, 9-(6-aminopyridin-3-yl)-6-(tert-butyl)-10-methoxy-2-oxo-6,7-dihydro-2H-pyrido[2,1-a]isoquinoline-3-carboxylic acid] | 1
CCOC(=O)c1cn2c(cc1=O)-c1cc(OC)c(-c3ccc(C)nc3)cc1CC2C(C)(C)C (stereo not drawn) [Example 55, Ethyl 6-(tert-butyl)-10-methoxy-9-(6-methylpyridin-3-yl)-2-oxo-6,7-dihydro-2H-pyrido[2,1-a]isoquinoline-3-carboxylate] | 0.8
COc1cc2c(cc1-c1ccc(NC3CCC3)nc1)CC(C(C)(C)C)n1cc(C(=O)O)c(=O)cc1-2 (stereo not drawn) [Example 56, 6-(tert-butyl)-9-(6-(cyclobutylamino)pyridin-3-yl)-10-methoxy-2-oxo-6,7-dihydro-2H-pyrido[2,1-a]isoquinoline-3-carboxylic acid] | 1
COc1cc2c(cc1-c1ccc(NC(C)=O)nc1)CC(C(C)(C)C)n1cc(C(=O)O)c(=O)cc1-2 (stereo not drawn) [Example 57, 9-(6-acetamidopyridin-3-yl)-6-(tert-butyl)-10-methoxy-2-oxo-6,7-dihydro-2H-pyrido[2,1-a]isoquinoline-3-carboxylic acid] | 1
COc1cc2c(cc1-c1cnc(C)nc1)CC(C(C)(C)C)n1cc(C(=O)O)c(=O)cc1-2 (stereo not drawn) [Example 58, 6-(tert-butyl)-10-methoxy-9-(2-methylpyrimidin-5-yl)-2-oxo-6,7-dihydro-2H-pyrido[2,1-a]isoquinoline-3-carboxylic acid] | 4
COc1cc2c(cc1-c1cnc(N3CCCC3)nc1)CC(C(C)(C)C)n1cc(C(=O)O)c(=O)cc1-2 (stereo not drawn) [Example 59, 6-(tert-butyl)-10-methoxy-2-oxo-9-(2-(pyrrolidin-1-yl)pyrimidin-5-yl)-6,7-dihydro-2H-pyrido[2,1-a]isoquinoline-3-carboxylic acid] | 10
COc1cc2c(cc1-c1cnc(N(C)C)nc1)CC(C(C)(C)C)n1cc(C(=O)O)c(=O)cc1-2 (stereo not drawn) [Example 61, 6-(tert-butyl)-9-(2-(dimethylamino)pyrimidin-5-yl)-10-methoxy-2-oxo-6,7-dihydro-2H-pyrido[2,1-a]isoquinoline-3-carboxylic acid] | 4
COc1cc2c(cc1-c1cnc(N3CCOCC3)nc1)CC(C(C)(C)C)n1cc(C(=O)O)c(=O)cc1-2 (stereo not drawn) [Example 62, 6-(tert-butyl)-10-methoxy-9-(2-morpholinylpyrimidin-5-yl)-2-oxo-6,7-dihydro-2H-pyrido[2,1-a]isoquinoline-3-carboxylic acid] | 5
COc1cc2c(cc1-c1cnc(NC3CC3)nc1)CC(C(C)(C)C)n1cc(C(=O)O)c(=O)cc1-2 (stereo not drawn) [Example 64, 6-(tert-butyl)-9-(2-(cyclopropylamino)pyrimidin-5-yl)-10-methoxy-2-oxo-6,7-dihydro-2H-pyrido[2,1-a]isoquinoline-3-carboxylic acid] | 7
COc1cc2c(cc1-c1cnc(N)nc1)CC(C(C)(C)C)n1cc(C(=O)O)c(=O)cc1-2 (stereo not drawn) [Example 65, 9-(2-aminopyrimidin-5-yl)-6-(tert-butyl)-10-methoxy-2-oxo-6,7-dihydro-2H-pyrido[2,1-a]isoquinoline-3-carboxylic acid] | 80
COc1ncc(-c2cc3c(cc2OC)-c2cc(=O)c(C(=O)O)cn2C(C(C)(C)C)C3)cn1 (stereo not drawn) [Example 66, 6-(tert-butyl)-10-methoxy-9-(2-methoxypyrimidin-5-yl)-2-oxo-6,7-dihydro-2H-pyrido[2,1-a]isoquinoline-3-carboxylic acid] | 0.8
COc1cc2c(cc1-c1cnc(NCC3CC3)nc1)CC(C(C)(C)C)n1cc(C(=O)O)c(=O)cc1-2 (stereo not drawn) [Example 67, 6-(tert-butyl)-9-(2-(cylcopropylmethylamino)pyrimidin-5-yl)-10-methoxy-2-oxo-6,7-dihydro-2H-pyrido[2,1-a]isoquinoline-3-carboxylic acid] | 0.3
COc1cc2c(cc1-c1cnc(Cl)nc1)CC(C(C)(C)C)n1cc(C(=O)O)c(=O)cc1-2 (stereo not drawn) [Example 68, 6-(tert-butyl)-9-(2-chloropyrimidin-5-yl)-10-methoxy-2-oxo-6,7-dihydro-2H-pyrido[2,1-a]isoquinoline-3-carboxylic acid] | 0.6
COc1cc2c(cc1-c1cnc(NC3CCC3)nc1)CC(C(C)(C)C)n1cc(C(=O)O)c(=O)cc1-2 (stereo not drawn) [Example 76, 6-(tert-butyl)-9-(2-(cyclobutylamino)pyrimidin-5-yl)-10-methoxy-2-oxo-6,7-dihydro-2H-pyrido[2,1-a]isoquinoline-3-carboxylic acid] | 0.4
COc1cc2c(cc1-c1cnc(N3CCC(C(=O)O)C3)nc1)CC(C(C)(C)C)n1cc(C(=O)O)c(=O)cc1-2 (stereo not drawn) [Example 77, 6-(tert-butyl)-9-(2-(3-carboxypyrrolidin-1-yl)pyrimidin-5-yl)-10-methoxy-2-oxo-6,7-dihydro-2H-pyrido[2,1-a]isoquinoline-3-carboxylic acid] | 150
COc1cc2c(cc1-c1cnc(NCC(=O)O)nc1)CC(C(C)(C)C)n1cc(C(=O)O)c(=O)cc1-2 (stereo not drawn) [Example 78, 6-(tert-butyl)-9-(2-((carboxymethyl)amino)pyrimidin-5-yl)-10-methoxy-2-oxo-6,7-dihydro-2H-pyrido[2,1-a]isoquinoline-3-carboxylic acid] | 45
